The compounds below were run on KPL-4 Cells (assay: Cell Proliferation Inhibition Test (CellTiter-Glo, 72 h)). Details: KPL4, 72 h incubation, CellTiter-Glo luminescence.
Assay type: cell-based
Protocol: Cell Proliferation Inhibition Test KPL-4 Cells in the logarithmic phase of growth were collected and re-suspended with fresh RPMI1640 complete cell culture medium, and adjusted to 2×10^4 cells/mL after cell counting. Cells were seeded into 96-well cell culture plates at 100 μL/well, and placed in a CO2 incubator (37° C., 5% CO2) overnight. In the next day, one of the cell culture plates were taken out, balanced to room temperature, and CellTiter-Glo reagent (Promega, USA), which was pre-balanced to room temperature and evenly mixed, was added into the plate at 100 μl. The plate was kept in dark for 30 min, and then luminescence value was read with a microplate reader (denoted as G0 value). The other cell culture plates were taken out and added with different concentrations of test compounds or DMSO (final concentration 0.5%) in corresponding wells. After incubated for 72 h in a CO2 incubator, the cell culture plates were balanced to room temperature and tested for cell viabilities using CellTiter-Glo reagent as described above (denoted as G3 value).
The cell proliferation rates were calculated using the following formula: Cell proliferation rate (%)=(mean of G3compound−mean of G0)/(mean of G3DMSO−mean of G0)×100.

Row | SMILES | GI50 [nM]
1 | CC[C@@]1(O)C(=O)OCc2c1cc1n(c2=S)Cc2c-1nc1cc(F)c(C)c3c1c2[C@@H](NC(=O)C(O)Cc1ccccc1)CC3 (stereo partly shown) [Example 7] | 5.76
2 | CC[C@@]1(O)C(=O)OCc2c1cc1n(c2=S)Cc2c-1nc1cc(F)c(C)c3c1c2[C@H](NC(=O)C(C)(C)O)CC3 [Example 10] | 3.54
3 | CC[C@@]1(O)C(=O)OCc2c1cc1n(c2=S)Cc2c-1nc1cc(F)c(C)c3c1c2[C@@H](NC(=O)CN)CC3 [Example 13] | 7.54
4 | CC[C@@]1(O)C(=O)OCc2c1cc1n(c2=S)Cc2c-1nc1cc(F)c(C)c3c1c2[C@@H](NC(=O)C(O)c1ccccc1)CC3 (stereo partly shown) [Example 5] | 1.79
5 | CC[C@@]1(O)C(=O)OCc2c1cc1n(c2=S)Cc2c-1nc1cc(F)c(C)c3c1c2[C@H](NC(=O)C(O)c1ccccc1)CC3 (stereo partly shown) [Example 6] | 5.31
6 | CC[C@@]1(O)C(=O)OCc2c1cc1n(c2=S)Cc2c-1nc1cc(F)c(C)c3c1c2[C@H](NC(=O)C(O)Cc1ccccc1)CC3 (stereo partly shown) [Example 8] | 4.95
7 | CC[C@@]1(O)C(=O)OCc2c1cc1n(c2=S)Cc2c-1nc1cc(F)c(C)c3c1c2[C@H](NC(=O)CN)CC3 [Example 14] | 6.14
8 | CC[C@@]1(O)C(=O)OCc2c1cc1n(c2=S)Cc2c-1nc1cc(F)c(C)c3c1c2[C@@H](NC(=O)C1(O)CC1)CC3 [Example 17] | 1.83
9 | CC[C@@]1(O)C(=O)OCc2c1cc1n(c2=S)Cc2c-1nc1cc(F)c(C)c3c1c2[C@H](NC(=O)C(O)CC1CC1)CC3 (stereo partly shown) [Example 20] | 4.79
10 | CC[C@@]1(O)C(=O)OCc2c1cc1n(c2=O)Cc2c-1nc1cc(F)c(C)c3c1c2[C@@H](NC(=O)CO)CC3 [DXd, reference compound] | 72
11 | CC[C@@]1(O)C(=O)OCc2c1cc1n(c2=S)Cc2c-1nc1cc(F)c(C)c3c1c2[C@@H](NC(=O)C(C)(C)O)CC3 [Example 9] | 12.1
12 | CC[C@@]1(O)C(=O)OCc2c1cc1n(c2=S)Cc2c-1nc1cc(F)c(C)c3c1c2[C@H](NC(=O)C1(O)CC1)CC3 [Example 18] | 3.89
13 | CC[C@@]1(O)C(=O)OCc2c1cc1n(c2=S)Cc2c-1nc1cc(F)c(C)c3c1c2[C@@H](NC(=O)C(O)CC1CC1)CC3 (stereo partly shown) [Example 19] | 2.9
14 | CC[C@@]1(O)C(=O)OCc2c1cc1n(c2=S)Cc2c-1nc1cc(F)c(C)c3c1c2[C@@H](NC(C)=O)CC3 [Example 3] | 2.59
15 | CC[C@@]1(O)C(=O)OCc2c1cc1n(c2=S)Cc2c-1nc1cc(F)c(C)c3c1c2[C@H](NC(=O)C(O)C1CC1)CC3 (stereo partly shown) [Example 21] | 34.7
16 | CC[C@@]1(O)C(=O)OCc2c1cc1n(c2=S)Cc2c-1nc1cc(F)c(C)c3c1c2[C@H](NC(C)=O)CC3 [Example 4] | 1.55

From patent US20240132515A1, “TOXIN MOLECULE SUITABLE FOR ANTIBODY-DRUG CONJUGATE” (MINGHUI PHARMACEUTICAL (HANGZHOU) LIMITED, priority 2021, published 2024)
